Results: patent publication US20050171182A1, “Methods and compositions for use in the treatment of mutant receptor tyrosine kinase driven cellular proliferative diseases” (priority 2003, published 2005)
Where two headings read alike, the source gives them in different places.

Assays:
[1] = system: EOL-1 cells; test: cells; conditions: for effect on viability of EOL-1 cells, presence of cytokines: 1 μM (U0126 10 μM), FIGS. 2, 4, 6, GM-CSF and IL-3 10 ng/mL each; for IC50: read-out: Viability (IC50) EOL-1
Experimental: (§1) Given that mutant Flt3 activates cyclin D/CDK4 signaling, the effect of the CDK4 inhibitor arcyriaflavin on the viability of MV4-11 cells was tested. As a control in this experiment, an inhibitor for cyclin A/CDK2 and cyclin E/CDK2 (purvalanol) as well as an inhibitor for cyclin B/CDK1 (alsterpaullone) was included. […] The inhibitors were also tested against EOL-1 cells, which express the mutant fusion kinase FiplL1-PDGFROα and against K562 and BV173 cells (CML cell lines) and THP-1 and U937 cells (AML cell lines). The dilution range of the inhibitors was from 20 μM to 10 nM.
(§2) Viability of the cell lines was determined by an MTT assay, which is based on the reduction of the tetrazolium salt 3, [4,5-dimethylthiazol-2-yl]-2,5-diphenyltetrazolium bromide (MTT). Mitochondrial enzymes associated with metabolic activity reduce MTT to a formazan dye, which can be measured spectrometrically. Cells undergoing apoptosis show reduced metabolic activity resulting in reduced formation of the formazan dye.
(§3) The bone marrow environment is known to contain a multitude of cytokines. […] The cell lines were incubated with the appropriate inhibitor in the presence and absence of the cytokines GM-CSF and IL-3 (10 ng/mL each).
(§4) To test the role of MEK in the survival of MV4-11 and EOL-1 cells, a viability assay (48 hour incubation) was performed using U0126 (10 μM), an MEK specific inhibitor (see FIG. 5).

[2] = system: K562 cells; test: MTT viability assay, K562 cells; type: cell-based
Experimental: as §1, §2

[3] = system: U937 cells; test: MTT viability assay, U937 cells; type: cell-based
Experimental: as §1, §2

[4] = system: BV173 cells; test: MTT viability assay, BV173 cells; type: cell-based
Experimental: as §1, §2

[5] = system: MV4-11 cells; test: cells; conditions: for IC50: read-out: Viability (IC50) MV4-11
Experimental: as §1, §2, §3, §4

[6] = system: THP-1 cells; test: cells; conditions: for IC50: read-out: Viability (IC50) THP-1; for effect on viability of THP-1 cells: 48 hours, arcyriaflavin 1 μM, U0126 10 μM, FIGS. 4-6, absence and presence of cytokines
Experimental: as §1, §2, §3, §4

[7] = exposed to inhibitor for 72 hours
[8] = exposed to inhibitor for 72 hours, MTT
[9] = 48 hours, arcyriaflavin 1 μM, U0126 10 μM, FIGS. 5, 6, absence and presence of cytokines

**Q.** How did the “effect on viability of EOL-1 cells, presence of cytokines” value ([1]; 48 hours) turn out when `CS(=O)(=O)O.Cc1ccc(NC(=O)c2ccc(CN3CCN(C)CC3)cc2)cc1Nc1nccc(-c2cccnc2)n1` [imatinib] was run?
**A.** Its value is “much less affected”.

**Q.** And the “effect on viability of EOL-1 cells, absence of cytokines” value ([1]; 48 hours, 1 μM, FIGS. 2, 4, cytokines absent)?
**A.** The value was “strongly reduce”.

**Q.** Which IC50 [2, 7] does the source give for purvalanol here?
**A.** The IC50 was over 10 µM.

**Q.** And the IC50 [3, 7]?
**A.** Its IC50 is over 10 µM.

**Q.** And the IC50 [4, 7]?
**A.** The IC50 was over 10 µM.

**Q.** What about the IC50 [5, 8] of the same compound?
**A.** Its IC50 is 3 µM.

**Q.** What about the IC50 [6, 8] of the same compound?
**A.** The IC50 was over 10 µM.

**Q.** What about the IC50 [1, 8] of the same compound?
**A.** Its IC50 is over 10 µM.

**Q.** For `O=C1Cc2c([nH]c3ccc([N+](=O)[O-])cc23)-c2ccccc2N1` [alsterpaullone], which IC50 ([2]; Homo sapiens, K562, exposed to inhibitor for 72 hours) is on record?
**A.** Its IC50 is over 10 µM.

**Q.** What about the IC50 ([3]; Homo sapiens, U-937, exposed to inhibitor for 72 hours) of the same compound?
**A.** The IC50 was 0.6 µM.

**Q.** What about the IC50 ([4]; Homo sapiens, BV-173, exposed to inhibitor for 72 hours) of the same compound?
**A.** Its IC50 is 1 µM.

**Q.** What about the IC50 ([5]; Homo sapiens, MV4-11, 72 h) of the same compound?
**A.** Its IC50 is 1 µM.

**Q.** And the IC50 ([6]; Homo sapiens, THP-1, 72 h)?
**A.** Its IC50 is 1 µM.

**Q.** And the IC50 ([1]; Homo sapiens, EOL1, 72 h)?
**A.** The IC50 was 1 µM.

**Q.** Which IC50 [2, 7] does the source give for `O=C1NC(=O)c2c1c1c3ccccc3[nH]c1c1[nH]c3ccccc3c21` [arcyriaflavin, arcyriaflavin A] here?
**A.** Its IC50 is over 10 µM.

**Q.** What about the IC50 [3, 7] of the same compound?
**A.** Its IC50 is over 10 µM.

**Q.** And the IC50 [4, 7]?
**A.** Its IC50 is over 10 µM.

**Q.** And the “Viability (%) MV4-11 cell line, GM-CSF/IL-3 (10 ng/mL each)” value [5]?
**A.** The value was 52%.

**Q.** And the “effect on viability of MV4-11 cells, presence of cytokines” value ([5]; 48 hours, 1 μM (U0126 10 μM), FIGS. 3, 4, 6, GM-CSF and IL-3 10 ng/mL each)?
**A.** Its value is “much reduced”.

**Q.** And the IC50 [5, 8]?
**A.** Its IC50 is 0.5 µM.

**Q.** What about the “Viability (%) THP-1 cell line, GM-CSF/IL-3 (10 ng/mL each)” value [6] of the same compound?
**A.** Its value is 96%.

**Q.** What about the “effect on viability of THP-1 cells” value [6] of the same compound?
**A.** Its value is “not affected”.

**Q.** What about the IC50 [6, 8] of the same compound?
**A.** The IC50 was over 10 µM.

**Q.** What about the “Viability (%) EOL-1 cell line, GM-CSF/IL-3 (10 ng/mL each)” value [1] of the same compound?
**A.** The value was 60%.

**Q.** What about the “effect on viability of EOL-1 cells, presence of cytokines” value ([1]; 48 hours) of the same compound?
**A.** The value was “much reduced”.

**Q.** What about the IC50 [1, 8] of the same compound?
**A.** The IC50 was 0.2 µM.

**Q.** Which “effect on survival/viability of MV4-11 cells, overall” value [5, 9] does the source give for `N#CC(=C(/N)Sc1ccccc1N)/C(C#N)=C(\N)Sc1ccccc1N` [U0126, 1,4-diamino-2,3-dicyano-1,4-bis[2-aminophenylthio]butadiene] here?
**A.** The value was “slightly alters”.

**Q.** What about the viability at 10 µM ([5]; Homo sapiens, MV4-11, 48 h, read-out: Viability (%) MV4-11 cell line, Cytokines Absent) of the same compound?
**A.** Its viability at 10 µM is 103%.

**Q.** And the “Viability (%) MV4-11 cell line, GM-CSF/IL-3 (10 ng/mL each)” value ([5]; human, 48 h, 10 μM)?
**A.** Its value is 90%.

**Q.** What about the “effect on viability of THP-1 cells” value [6] of the same compound?
**A.** The value was “slightly alters”.

**Q.** What about the viability at 10 µM ([6]; Homo sapiens, THP-1, 48 h, read-out: Viability (%) THP-1 cell line, Cytokines Absent) of the same compound?
**A.** The viability at 10 µM was 79%.

**Q.** And the “Viability (%) THP-1 cell line, GM-CSF/IL-3 (10 ng/mL each)” value ([6]; human, 48 h, 10 μM)?
**A.** The value was 97%.

**Q.** And the “effect on survival/viability of EOL-1 cells, overall” value [1, 9]?
**A.** The value was “slightly alters”.

**Q.** And the viability at 10 µM ([1]; Homo sapiens, EOL1, 48 h, read-out: Viability (%) EOL-1 cell line, Cytokines Absent)?
**A.** Its viability at 10 µM is 80%.

**Q.** And the “Viability (%) EOL-1 cell line, GM-CSF/IL-3 (10 ng/mL each)” value ([1]; human, 48 h, 10 μM)?
**A.** The value was 103%.
